Test system: 323965-272-R-J2-PDC complex spheroid growth, % test/control
Experiment: Anticancer human tumor 323965-272-R-J2-PDC patient-derived pancreatic carcinoma cell line growth inhibition [Asc]
Details: for IC50: curve of first compound; for viability, T/C: stronger effect = lower value
Summary of the method: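 Complex solid-tumor spheroids incorporating human endothelial and mesenchymal stem cells received single agents or combinations over half-log dilution ranges anchored to clinical Cmax.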

[1] = second compound 0.00316 µM, first compound 0.0316 µM
[2] = second compound 0.00316 µM, first compound 0.1 µM
[3] = second compound 0.00316 µM, first compound 0.316 µM
[4] = second compound 0.00316 µM, first compound 1 µM
[5] = second compound 0.00316 µM, first compound 3.16 µM
[6] = second compound 0.00316 µM, first compound 10 µM
[7] = second compound 0.01 µM, first compound 0.0316 µM
[8] = second compound 0.01 µM, first compound 0.1 µM
[9] = second compound 0.01 µM, first compound 0.316 µM
[10] = second compound 0.01 µM, first compound 1 µM
[11] = second compound 0.01 µM, first compound 3.16 µM
[12] = second compound 0.01 µM, first compound 10 µM
[13] = second compound 0.0316 µM, first compound 0.0316 µM
[14] = second compound 0.0316 µM, first compound 0.1 µM
[15] = second compound 0.0316 µM, first compound 0.316 µM
[16] = second compound 0.0316 µM, first compound 1 µM
[17] = second compound 0.0316 µM, first compound 3.16 µM
[18] = second compound 0.0316 µM, first compound 10 µM
[19] = second compound 0.1 µM, first compound 0.0316 µM
[20] = second compound 0.1 µM, first compound 0.1 µM
[21] = second compound 0.1 µM, first compound 0.316 µM
[22] = second compound 0.1 µM, first compound 1 µM
[23] = second compound 0.1 µM, first compound 3.16 µM
[24] = second compound 0.1 µM, first compound 10 µM
[25] = second compound 0.316 µM, first compound 0.0316 µM
[26] = second compound 0.316 µM, first compound 0.1 µM
[27] = second compound 0.316 µM, first compound 0.316 µM
[28] = second compound 0.316 µM, first compound 1 µM
[29] = second compound 0.316 µM, first compound 3.16 µM
[30] = second compound 0.316 µM, first compound 10 µM
[31] = second compound 1 µM, first compound 0.0316 µM
[32] = second compound 1 µM, first compound 0.1 µM
[33] = second compound 1 µM, first compound 0.316 µM
[34] = second compound 1 µM, first compound 1 µM
[35] = second compound 1 µM, first compound 3.16 µM
[36] = second compound 1 µM, first compound 10 µM
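Also: compound exposure lasted 7 days starting three days after spheroid seeding.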
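For viability, T/C in this document: 100% = DMSO vehicle control wells with viability set relative to vehicle.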

C#Cc1c(F)ccc2cc(O)cc(-c3ncc4c(N5CC6CCC(C5)N6)nc(OCC56CCCN5CC(F)C6)nc4c3F)c12 (centres undefined) + CNC(C)C(=O)NC1CN(S(=O)(=O)c2cccc(S(=O)(=O)N3CCC4CCC(C(=O)NC(c5ccccc5)c5ccccc5)N4C(=O)C(NC(=O)C(C)NC)C3)c2)CCC2CCC(C(=O)NC(c3ccccc3)c3ccccc3)N2C1=O
IC50 (second compound 0.00316 µM): > 10 µM | IC50 (second compound 0.01 µM): > 10 µM | IC50 (second compound 0.0316 µM): > 10 µM | IC50 (second compound 0.1 µM): > 10 µM | IC50 (second compound 0.316 µM): > 10 µM | IC50 (second compound 1 µM): > 10 µM | viability, T/C [1]: 109% | viability, T/C [2]: 92.7% | viability, T/C [3]: 94.1% | viability, T/C [4]: 94.9% | viability, T/C [5]: 70.2% | viability, T/C [6]: 61.8% | viability, T/C [7]: 117% | viability, T/C [8]: 102% | viability, T/C [9]: 96.4% | viability, T/C [10]: 87.4% | viability, T/C [11]: 74.2% | viability, T/C [12]: 63.2% | viability, T/C [13]: 127% | viability, T/C [14]: 102% | viability, T/C [15]: 106% | viability, T/C [16]: 89.7% | viability, T/C [17]: 70.4% | viability, T/C [18]: 58.3% | viability, T/C [19]: 101% | viability, T/C [20]: 96.6% | viability, T/C [21]: 95.4% | viability, T/C [22]: 91.2% | viability, T/C [23]: 62.3% | viability, T/C [24]: 70.2% | viability, T/C [25]: 101% | viability, T/C [26]: 95.1% | viability, T/C [27]: 96.5% | viability, T/C [28]: 82.4% | viability, T/C [29]: 74% | viability, T/C [30]: 65.4% | viability, T/C [31]: 90.9% | viability, T/C [32]: 105% | viability, T/C [33]: 92.9% | viability, T/C [34]: 91% | viability, T/C [35]: 66.8% | viability, T/C [36]: 53.2%

C=C(F)C(=O)N1CCN(c2nc(OCC3CCCN3C)nc3c2CCN(c2cccc4cccc(Cl)c24)C3)CC1CC#N (centres undefined) + CNC(C)C(=O)NC1CN(S(=O)(=O)c2cccc(S(=O)(=O)N3CCC4CCC(C(=O)NC(c5ccccc5)c5ccccc5)N4C(=O)C(NC(=O)C(C)NC)C3)c2)CCC2CCC(C(=O)NC(c3ccccc3)c3ccccc3)N2C1=O
IC50 (second compound 0.00316 µM): 3.55 µM | IC50 (second compound 0.01 µM): 3.55 µM | IC50 (second compound 0.0316 µM): 3.7 µM | IC50 (second compound 0.1 µM): 3.45 µM | IC50 (second compound 0.316 µM): 3.72 µM | IC50 (second compound 1 µM): 3.38 µM | viability, T/C [1]: 54.3% | viability, T/C [2]: 48.5% | viability, T/C [3]: 50.5% | viability, T/C [4]: 56.1% | viability, T/C [5]: 67.9% | viability, T/C [6]: 0.23% | viability, T/C [7]: 62.3% | viability, T/C [8]: 44.2% | viability, T/C [9]: 48.8% | viability, T/C [10]: 56.6% | viability, T/C [11]: 66.3% | viability, T/C [12]: 0.24% | viability, T/C [13]: 55.8% | viability, T/C [14]: 54.8% | viability, T/C [15]: 47.1% | viability, T/C [16]: 55.4% | viability, T/C [17]: 76% | viability, T/C [18]: 0.21% | viability, T/C [19]: 52% | viability, T/C [20]: 46.7% | viability, T/C [21]: 48.5% | viability, T/C [22]: 53.4% | viability, T/C [23]: 69.9% | viability, T/C [24]: 0.25% | viability, T/C [25]: 55.5% | viability, T/C [26]: 53.6% | viability, T/C [27]: 59.5% | viability, T/C [28]: 53.8% | viability, T/C [29]: 68.3% | viability, T/C [30]: 0.21% | viability, T/C [31]: 56.8% | viability, T/C [32]: 49.1% | viability, T/C [33]: 38.6% | viability, T/C [34]: 56% | viability, T/C [35]: 65% | viability, T/C [36]: 0.22%

— PubChem BioAssay AID1963425 (Molecular Pharmacology Branch, DTP, NCI, 2024)
